Here are results for two molecules from patent US20110190235A1, “BORON-CONTAINING SMALL MOLECULES AS ANTIPROTOZOAL AGENTS” (Anacor Pharmaceuticals, Inc., priority 2009, published 2011).

This experiment has as its system TREU 667 strain of T. b. brucei. The experiment can be described thus: Chronic CNS Model. The class given is in vivo, T. b. brucei in mice. Here is the method:
Mice were infected with 10,000 parasites of the TREU 667 strain of T. b. brucei. Twenty one days post-infection mice were treated with a dose of between 6 and 100 mg/kg of the compound, either BID or QD for 7 days intraperitoneally (IP) or orally (PO). Positive control mice were treated with Diminazene (10 mg/kg, IP) on Day 4 post-infection. Negative control mice were treated with Diminazene (10 mg/kg, PO) on Day 21. Since Diminazene is not able to penetrate the CNS, mice treated at Day 21 are not able to cure the infection. Starting 1 week after the end of treatment, mice are monitored for parasitemia and sacrificed if parasites are detected in the blood. Mice that survive 6 months are considered “cured.”

For the molecule `CC1(C)OB(O)c2cc(NC(=O)c3ccc(F)cc3C(F)(F)F)ccc21`, the “mice with absence of blood parasites through Day 84” value (75 mg/kg BID for 7 days, starting at Day 21 post-infection) is 100%.

With `N=C(N)c1ccc(/N=N/Nc2ccc(C(=N)N)cc2)cc1` [Diminazene, diminazene, reference compound], the “Day by which all animals relapsed to exhibit blood parasitemia” value (treated on Day 21 (10 mg/kg)) is not above 49 days.
